Laboratory results as given in paper PMC9030166, “Natural Phaeosphaeride A Derivatives Overcome Drug Resistance of Tumor Cells and Modulate Signaling Pathways” (Pharmaceuticals, 2022).

How the values were obtained:
STAT3 (pSer727) = experiment: MILLIPLEX MAP 9-Plex, STAT3 active form in A431 lysates; assay type: cell-based, human; settings: 10 μM; for STAT3 (pSer727) fluorescence intensity: A431 cell lysates, 1 h, M ± mx, control 70.7 ± 18.3
From the text: (§1) We used the MILLIPLEX MAP Multi-Pathway Magnetic Bead 9-Plex-Cell Signaling Multiplex Assay, which allows the simultaneous detection of nine phosphorylated proteins that are markers of the main intracellular signaling pathways (phosphorylation site is indicated in parentheses), a universal transcription factor that controls the expression of immune response genes; apoptosis and cell cycle NFκB (pS536); cAMP-dependent transcription factor (CREB (pS133); mitogen-activated kinase p38 (pT180/pY182); stress-activated protein kinase JNK (pT183/pY185); ribosomal […]; transcription factors STAT3 (pS727) and STAT5A/B (pY694/699); protein kinase B (Akt) (pS473); and kinase regulated by extracellular signals ERK1/2 (pT185/pY187).
(§2) The effect of various concentrations of PPA derivatives on the cell culture was studied using xCelligence RTCA equipment (AceaBioscience, San Diego, CA, USA). The concentration closest to the IC50 (10 μM) was chosen as the experimental concentration. The selected concentration of phaeosphaeride A derivatives allows for the assessment of the early effect of compounds on cells and compares their effectiveness. In this experiment, the signaling pathways Akt (pSer473), p70S6K (pThr412), NFkB (p65-pSer536), and CREB (pSer133) were not activated (Table 8). The stress-activated signaling pathways ERK/MAP kinase 1/2 (pThr185/pTyr187), JNK (pThr183/pTyr185), and p38 (pThr180/pTyr182) were activated for these compounds.
(§3) We used a MILLIPLEX MAP Multi-Pathway Magnetic Bead 9-Plex-Cell Signaling Multiplex Assay kit (Merck/Millipore), according to the manufacturer’s protocol. A431 cells were cultured in DMEM with 10% FBS in 24-well plates. Compounds were added to the subconfluent cells at a concentration of 10 μM in DMEM medium for 1 h. Each compound was added in 5 experimental repeats. Cell lysates were prepared with lysis buffer (Millipore) with protease inhibitors (Complete, Roche); the protein concentration in the lysates was determined by the Lowry method. In samples equalized in protein concentration, the active forms of kinase cascades were determined using a Bio-Plex 200 fluorescent analyzer (Bio-Rad).

[1] = test system: ERK 1/2 (pThr185/pTyr187); experiment: MILLIPLEX MAP 9-Plex, ERK 1/2 active form in A431 lysates; assay type: cell-based, human; settings: 10 μM; for ERK ½ (pThr185/pTyr187) fluorescence intensity: A431 cell lysates, 1 h, M ± mx, control 839.7 ± 248.9; for activation of signaling pathway ERK/MAP kinase 1/2 (pThr185/pTyr187), in words: A431 cells
From the text: as §1, §2, §3

[2] = test system: CMT № 2 (Malignant Schwannoma); experiment: MTT cytotoxicity, primary culture of soft tissue sarcoma CMT № 2; assay type: cell-based; settings: Homo sapiens, 48 h
From the text: It is believed that such cultures have a molecular profile that corresponds more with cells from the human body, in comparison with that of stable cultures of tumor cells (Table 3).
(§4) Cell cultures used in the work: adhesive cultures HBL-100 cells (cells of a normal mammary gland epithelium, immortalized by the SV40 virus and acquired tumorigenicity); MCF-7 breast cancer cells; PC-3 prostate adenocarcinoma cells; HCT-116 colorectal cancer cells; non-small cell lung cancer cells A549; human embryonic kidney cells HEK293; suspension cultures (NCI-H929 and RPMI8226 multiple myeloma cells), K562 chronic myeloid leukemia cells; THP-1 acute monocytic leukemia cells; and Jurkat acute T-cell leukemia cells. We also used several primary cultures of soft tissue sarcomas at 3–4passeges, kindly provided by T.I. Fetisov (The Ethics Committee of N.N. Blokhin NMRCO, protocol code 18-28-09095 and date of approval 28 September 2018).
(§5) Modifications of cell lines: K562/i-S9 is a clone obtained after transfection of K562 cells with the ABCB1 (MDR1) gene-encoding P-glycoprotein [36]. Cells HBL-100/Dox and K562/i-S9_Dox are cells obtained by long-term selection with increasing concentrations of doxorubicin (Sigma-Aldrich, St. Louis, MO, USA) from HBL-100 and K562/i-S9 cells, respectively. MCF-7, A594 cells, and primary cultures of soft tissue sarcomas were cultured in DMEM medium (PanEko, Russia), PC-3 and HCT-116 cells and all suspension cultures in RPMI1640 medium (PanEko, Russia) supplemented with 10% fetal bovine serum (GE Healthcare LifeSciences, USA), and gentamicin at a concentration of 40 μg/mL at 37 °C and 5% CO2.
Cells MCF-7, PC-3, A549, and HCT-116, and primary cultures of STSwere seeded in 96-well plates, 6 × 10^3 cells per well in 90 μL of culture medium. Suspension cultures were seeded at a concentration of 25 × 10^3 cells per well in 135 μL of medium. The test substances were dissolved in DMSO (Applichem, Council Bluffs, IA, USA) until a concentration of 1 × 10^−^2 M was obtained; for the subsequent dilution of the substances, a serum-free culture medium was used. The next day, for adhesive cultures, and on the same day, for suspension cultures, substances were added to the plates in a volume of 10 μL (adhesive cultures) and 15 μL (suspension cultures) per well at various concentrations; each concentration was added in 3–4 repetitions. The cells were cultured in the presence of substances for 48 h. […] The optical density was determined using a Multiskan FC spectrophotometer (Thermo Scientific, Waltham, MA, USA) at a wavelength of 540 nm.
Based on the results of the experiments, a schedule was plotted of the dependence of the percentage of surviving cells (from control) on the concentration of the compound, and the sought concentration IC50 was calculated. […]

CREB (pSer133) = experiment: MILLIPLEX MAP 9-Plex, CREB active form in A431 lysates; assay type: cell-based, human; settings: A431 cell lysates, 10 μM, 1 h, M ± mx; control 154.5 ± 34.2
From the text: as §1, §2, §3

K562 = experiment: MTT cytotoxicity, K562 chronic myeloid leukemia cells; assay type: cell-based; settings: Homo sapiens, K562, suspension culture, 48 h (Table 2)
From the text: as §4, §5
Cells MCF-7, PC-3, A549, and HCT-116, and primary cultures of STSwere seeded in 96-well plates, 6 × 10^3 cells per well in 90 μL of culture medium. Suspension cultures were seeded at a concentration of 25 × 10^3 cells per well in 135 μL of medium. The test substances were dissolved in DMSO (Applichem, Council Bluffs, IA, USA) until a concentration of 1 × 10^−^2 M was obtained; for the subsequent dilution of the substances, a serum-free culture medium was used. The next day, for adhesive cultures, and on the same day, for suspension cultures, substances were added to the plates in a volume of 10 μL (adhesive cultures) and 15 μL (suspension cultures) per well at various concentrations; each concentration was added in 3–4 repetitions. The cells were cultured in the presence of substances for 48 h. Then, MTT reagent (PanEko, Moscow, Russia) was added to the wells at a concentration of 5 mg/mL in a volume of 20 μL per well. After 1.5–2 h, the medium with the reagent was removed, and the precipitate of the crystals of formazan was dissolved in 60 μL of DMSO. The optical density was determined using a Multiskan FC spectrophotometer (Thermo Scientific, Waltham, MA, USA) at a wavelength of 540 nm.
Based on the results of the experiments, a schedule was plotted of the dependence of the percentage of surviving cells (from control) on the concentration of the compound, and the sought concentration IC50 was calculated. The experiments were carried out in 3–4 times.

SMILES | activation of signaling pathway ERK/MAP kinase 1/2 (pThr185/pTyr187), in words [1] | STAT3 (pSer727) fluorescence intensity (STAT3 (pSer727)) | ERK ½ (pThr185/pTyr187) fluorescence intensity [1] | IC50 [2] | CREB (pSer133) fluorescence intensity (CREB (pSer133)) | IC50 (K562) | activation of transcription factor STAT3 (pSer727), in words (STAT3 (pSer727); A431 cells)
C=C1C2=C(C(=O)N1OC)[C@@H](N(CC)CCO)[C@@](C)(O)[C@H](CCCCC)O2 [Compound 9, (2S,3R,4R)-4-[ethyl(2-hydroxyethyl)amino]-3-hydroxy-6-methoxy-3-methyl-7-methylene-2-pentyl-3,4,6,7-tetrahydropyrano[2,3-c]pyrrol-5(2H)-one] | – | 151.5 ± 28.7 rel. units | 3276.9 ± 700.0 *↑ rel. units | 4.1 ± 1.1 µM | 339.8 ± 53.3 *↑ rel. units | 3.7 ± 0.5 µM | –
CCCCC[C@@H]1OC2=C(C(=O)N(OC)/C2=C\n2cnnc2)C(n2cnnc2)[C@@]1(C)O (stereo partly drawn) [Compound 10] | only slightly activated | 178.9 ± 13.4 *↑ rel. units | 1864.9 ± 149.5 *↑ rel. units | – | 584.8 ± 105.5 *↑ rel. units | 45 ± 5.4 µM | –
C=C1C2=C(C(=O)N1OC)[C@@H](N1CCCC1)[C@@](C)(O)[C@H](CCCCC)O2 [Compound 1] | – | 163.0 ± 20.7 *↑ rel. units | 4650.1 ± 509.0 *↑ rel. units | 2.5 ± 0.9 µM | 329.9 ± 48.4 *↑ rel. units | 3.8 ± 0.6 µM | –

More lines, main results first:

activation of signaling pathway ERK/MAP kinase 1/2 (pThr185/pTyr187), in words [1] | SMILES | STAT3 (pSer727) fluorescence intensity (STAT3 (pSer727)) | ERK ½ (pThr185/pTyr187) fluorescence intensity [1] | IC50 [2] | CREB (pSer133) fluorescence intensity (CREB (pSer133)) | IC50 (K562) | activation of transcription factor STAT3 (pSer727), in words (STAT3 (pSer727); A431 cells)
maximum degree of activation | C=C1C2=C(C(=O)N1OC)[C@@H](N(C)C)[C@@](C)(O)[C@H](CCCCC)O2 [Compound 2, (2S,3R,4R)-4-(dimethylamino)-3-hydroxy-6-methoxy-3-methyl-7-methylene-2-pentyl-3,4,6,7-tetrahydropyrano[2,3-c]pyrrol-5(2H)-one] | 272.3 ± 50.5 *↑ rel. units | 5074.6 ± 770.1 *↑ rel. units | 1.9 ± 0.5 µM | 610.0 ± 113.0 *↑ rel. units | 2.4 ± 0.7 µM | slightly activated
only slightly activated | C=C1C2=C(C(=O)N1OC)[C@@H](N(CCCC)CCCC)[C@@](C)(O)[C@H](CCCCC)O2 [Compound 5, (2S,3R,4R)-4-(dibutylamino)-3-hydroxy-6-methoxy-3-methyl-7-methylene-2-pentyl-3,4,6,7-tetrahydropyrano[2,3-c]pyrrol-5(2H)-one] | 123.4 ± 8.3 *↑ rel. units | 1880.4 ± 81.7 *↑ rel. units | – | 202.1 ± 26.3 rel. units | 6.5 ± 0.5 µM | –
